The values that follow come from US20130071432A1 (priority 2011, published 2013).

For data set [1], the system named is VSV. The settings on record: mouse, in vivo; cited from earlier work.
For data set [2], the target named is T1, full length RNase L activated by 2-5A (Homo sapiens, UniProt Q05823).
T1 sequence (Q05823 1-741): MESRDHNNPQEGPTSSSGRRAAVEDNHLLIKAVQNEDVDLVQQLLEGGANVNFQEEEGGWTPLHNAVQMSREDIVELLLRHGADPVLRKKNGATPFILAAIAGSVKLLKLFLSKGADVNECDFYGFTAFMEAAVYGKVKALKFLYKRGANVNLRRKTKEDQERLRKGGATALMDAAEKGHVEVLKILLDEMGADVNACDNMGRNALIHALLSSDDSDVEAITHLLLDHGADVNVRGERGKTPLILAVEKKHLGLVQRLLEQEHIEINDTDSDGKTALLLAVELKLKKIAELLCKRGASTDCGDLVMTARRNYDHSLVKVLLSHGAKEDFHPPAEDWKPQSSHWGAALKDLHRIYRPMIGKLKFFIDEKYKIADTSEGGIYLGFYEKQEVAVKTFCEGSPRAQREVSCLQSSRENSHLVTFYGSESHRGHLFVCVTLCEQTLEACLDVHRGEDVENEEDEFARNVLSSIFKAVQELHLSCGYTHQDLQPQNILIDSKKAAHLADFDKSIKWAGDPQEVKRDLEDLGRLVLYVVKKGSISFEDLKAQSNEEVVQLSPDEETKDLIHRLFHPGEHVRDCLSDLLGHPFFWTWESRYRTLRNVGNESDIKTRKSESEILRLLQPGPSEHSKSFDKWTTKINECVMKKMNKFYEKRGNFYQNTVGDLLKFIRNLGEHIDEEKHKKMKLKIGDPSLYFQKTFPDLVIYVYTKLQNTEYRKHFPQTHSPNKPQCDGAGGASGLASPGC
Description: biochemical.

Data set [3] deals with T2, constitutively active, truncated mutant RNase L(NΔ335) (Homo sapiens, UniProt Q05823).
T2 sequence (Q05823 336-741 limits assumed): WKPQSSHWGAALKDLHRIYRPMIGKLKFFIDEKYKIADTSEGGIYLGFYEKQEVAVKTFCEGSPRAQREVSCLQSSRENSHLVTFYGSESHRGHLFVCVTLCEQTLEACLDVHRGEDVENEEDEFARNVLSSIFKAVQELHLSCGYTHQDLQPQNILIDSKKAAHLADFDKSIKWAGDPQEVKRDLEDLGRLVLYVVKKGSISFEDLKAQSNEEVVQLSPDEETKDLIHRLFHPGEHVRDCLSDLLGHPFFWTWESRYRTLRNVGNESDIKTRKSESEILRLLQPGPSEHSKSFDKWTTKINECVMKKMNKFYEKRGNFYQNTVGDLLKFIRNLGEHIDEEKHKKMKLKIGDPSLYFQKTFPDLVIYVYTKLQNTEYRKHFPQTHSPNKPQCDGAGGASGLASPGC
Nature of the data set: biochemical.

The conditions of data set [4]: in vivo; cited from earlier work.
The nature of data set [5]: in vitro. The settings on record: human.
Data set [6] in a line: in vitro. As to conditions: human. The source holds these as a separate data set.
Data set [7] can be described thus: in vitro. The settings on record: human, mouse, reduction in cell viability.

The structures appear in SMILES notation.

Take `O=P1(N(CCCl)CCCl)NCCCO1` (stereo not shown) [CPA, cyclophosphamide]: in data set [1], the “induction of antiviral antibodies against VSV challenge” value is “completely suppressed induction of antiviral antibodies”.
Consider `CCN(CC)CCNC(=O)c1c(C)[nH]c(/C=C2\C(=O)Nc3ccc(F)cc32)c1C` [sunitinib], for which the IC50 in data set [2] and in data set [3] was 1400 nM each time. Besides, the serum concentrations result in data set [4] is “equivalent to those of patients”. Also, the values for the cytotoxicity in data set [5], in data set [6] and in data set [7] were 60%, 60% and roughly 20%, respectively.

By IC50 is commonly meant the concentration that inhibits the measured activity by half. Low readings indicate inhibition by little substance, high ones a need for much substance.
